Laboratory results published in PubChem BioAssay AID248 (DTP/NCI, 2004).
“And” between values parts separate entries of the source, which are not always exact repeats. Equal entries are not always repeated. Toxic doses and inconclusive results are not listed. Cut-off read from the data, not from the text of the source: active = T/C of 150% or more; inactive = T/C below 125%.

Tested on: L1210 leukemia ip in BDF1 mice, survival T/C
Test: NCI In Vivo Anticancer Drug Screen. Data for tumor model L1210 Leukemia (intraperitoneal) in B6D2F1 (BDF1) mice
Conditions: endpoint: mean survival time, higher = longer survival
Summary of the method: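 Read-out is survival time, reported as the treated-group measurement over the vehicle-control measurement.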

[1] = dose: 100.0 mg/kg/injection, schedule: Q04DX002 (ip), vehicle: Klucel (hydroxypropylcellulose) (HPC)
[2] = dose: 200.0 mg/kg/injection, schedule: Q04DX002 (ip), vehicle: Klucel (hydroxypropylcellulose) (HPC)
[3] = dose: 100.0 mg/kg/injection, schedule: Q01DX009 (ip), vehicle: saline with Tween-80
[4] = dose: 100.0 mg/kg/injection, schedule: Q04DX003 (ip), vehicle: saline with Tween-80
[5] = dose: 200.0 mg/kg/injection, schedule: Q01DX009 (ip), vehicle: saline with Tween-80
[6] = dose: 400.0 mg/kg/injection, schedule: Q01DX009 (ip), vehicle: saline with Tween-80
[7] = dose: 100.0 mg/kg/injection, schedule: Q01DX001 (ip), vehicle: carboxymethylcellulose (CMC)
[8] = dose: 100.0 mg/kg/injection, schedule: Q01DX001 (ip), vehicle: saline
[9] = dose: 200.0 mg/kg/injection, schedule: Q01DX001 (ip), vehicle: saline
[10] = dose: 400.0 mg/kg/injection, schedule: Q01DX001 (ip), vehicle: saline
[11] = dose: 100.0 mg/kg/injection, schedule: Q01DX001 (ip), vehicle: Klucel (hydroxypropylcellulose) (HPC)
[12] = dose: 200.0 mg/kg/injection, schedule: Q01DX001 (ip), vehicle: Klucel (hydroxypropylcellulose) (HPC)
[13] = dose: 400.0 mg/kg/injection, schedule: Q01DX001 (ip), vehicle: Klucel (hydroxypropylcellulose) (HPC)

Measured: T/C

COc1ccc(C(=O)CCC(=O)O)c(C)c1
inactive: dose: 100.0 mg/kg/injection, schedule: Q01DX009 (ip), vehicle: saline 97 % of control | dose: 200.0 mg/kg/injection, schedule: Q01DX009 (ip), vehicle: saline 101 % of control | dose: 400.0 mg/kg/injection, schedule: Q01DX009 (ip), vehicle: saline 105 % of control

CC(=O)Nc1ccc(C(=O)O)cc1
inactive: [1] 88 % of control | [2] 92 % of control | dose: 400.0 mg/kg/injection, schedule: Q04DX002 (ip), vehicle: Klucel (hydroxypropylcellulose) (HPC) 111 % of control

c1ccc(CNc2cccc3c(NCc4ccccc4)cccc23)cc1
inactive: dose: 100.0 mg/kg/injection, schedule: Q01DX001 (ip), vehicle: saline with Tween-80 87 % of control | [3] 86 % of control | [4] 88 % of control | dose: 200.0 mg/kg/injection, schedule: Q01DX001 (ip), vehicle: saline with Tween-80 95 % of control | [5] 93 % of control | dose: 400.0 mg/kg/injection, schedule: Q01DX001 (ip), vehicle: saline with Tween-80 88 % of control | [6] 95 % of control

Cc1ccc(S(=O)(=O)S/C(=N\c2ccccn2)Nc2ccccn2)cc1
inactive: [7] 98 % of control | dose: 200.0 mg/kg/injection, schedule: Q01DX001 (ip), vehicle: carboxymethylcellulose (CMC) 93 % of control | dose: 400.0 mg/kg/injection, schedule: Q01DX001 (ip), vehicle: carboxymethylcellulose (CMC) 91 % of control

CNCc1ccccc1Cc1ccccc1
inactive: dose: 75.0 mg/kg/injection, schedule: Q01DX001 (ip), vehicle: saline 100 % of control | dose: 150.0 mg/kg/injection, schedule: Q01DX001 (ip), vehicle: saline 97 % of control | dose: 300.0 mg/kg/injection, schedule: Q01DX001 (ip), vehicle: saline 95 % of control

Clc1ccc(/C=N/Nc2c3ccccc3nc3ccccc23)c(Cl)c1
inactive: [8] 92 % of control | [9] 97 % of control | [10] 100 % of control

O=C(CC(O)(C(F)(F)F)C(F)(F)F)c1ccc(F)cc1
inactive: [4] 94 % of control | dose: 200.0 mg/kg/injection, schedule: Q04DX003 (ip), vehicle: saline with Tween-80 92 % of control | dose: 400.0 mg/kg/injection, schedule: Q04DX003 (ip), vehicle: saline with Tween-80 103 % of control

N#Cc1nc(N)c(NC2(O)C(=O)Nc3ccccc32)nc1C#N (configuration not stated)
inactive: [1] 97 % of control | [2] 105 % of control

NCCCC(=O)NC(Cc1cnc[nH]1)C(=O)O (configuration not stated)
inactive: [8] 95 % of control | [9] 97 % of control | [10] 92 % of control

Cc1csc2nc(-c3ccccc3)[nH]c(=O)c12
inactive: dose: 75.0 mg/kg/injection, schedule: Q01DX001 (ip), vehicle: saline sonified 86 % of control | dose: 150.0 mg/kg/injection, schedule: Q01DX001 (ip), vehicle: saline sonified 101 % of control | dose: 300.0 mg/kg/injection, schedule: Q01DX001 (ip), vehicle: saline sonified 107 % of control

COc1ccc(OC(=O)Nc2cc(C)ccc2C)cc1
inactive: dose: 100.0 mg/kg/injection, schedule: Q01DX009 (ip), vehicle: Klucel (hydroxypropylcellulose) (HPC) 91 % of control | dose: 100.0 mg/kg/injection, schedule: Q04DX003 (ip), vehicle: Klucel (hydroxypropylcellulose) (HPC) 94 % of control | dose: 200.0 mg/kg/injection, schedule: Q01DX009 (ip), vehicle: Klucel (hydroxypropylcellulose) (HPC) 90 % of control | dose: 200.0 mg/kg/injection, schedule: Q04DX003 (ip), vehicle: Klucel (hydroxypropylcellulose) (HPC) 97 % of control | dose: 400.0 mg/kg/injection, schedule: Q04DX003 (ip), vehicle: Klucel (hydroxypropylcellulose) (HPC) 108 % of control

COC(=O)NC(C)(NC(=O)OC)C(=O)OC
inactive: [3] 104 % of control | [5] 106 % of control | [6] 97 % of control

CN(C)N=Nc1c(O)ccc2c1CCC1C2CCC2(C)C(=O)CCC12 (configuration not stated)
inactive: dose: 12.5 mg/kg/injection, schedule: Q01DX009 (ip), vehicle: Klucel (hydroxypropylcellulose) (HPC) 92 % of control | dose: 25.0 mg/kg/injection, schedule: Q01DX009 (ip), vehicle: Klucel (hydroxypropylcellulose) (HPC) 94 % of control | dose: 50.0 mg/kg/injection, schedule: Q01DX009 (ip), vehicle: Klucel (hydroxypropylcellulose) (HPC) 107 % of control

Nc1ccccc1-c1nc(N)c2ccccc2n1
inactive: [11] 102 % of control | [12] 102 % of control | [13] 108 % of control

Cc1ccc(NCCN2CCOCC2)c2c(=O)c3ccccc3sc12
inactive: dose: 9.0 mg/kg/injection, schedule: Q01DX Z (ip), vehicle: methylcellulose (MC) 92 % of control | dose: 14.0 mg/kg/injection, schedule: Q01DX Z (ip), vehicle: methylcellulose (MC) 104 % of control | dose: 21.0 mg/kg/injection, schedule: Q01DX Z (ip), vehicle: methylcellulose (MC) 97 % of control | dose: 32.0 mg/kg/injection, schedule: Q01DX Z (ip), vehicle: methylcellulose (MC) 109 % of control

O=C(CC(Cl)(C(F)(F)F)C(F)(F)F)c1cccc([N+](=O)[O-])c1
inactive: dose: 12.5 mg/kg/injection, schedule: Q01DX009 (ip), vehicle: saline with Tween-80 91 % of control | dose: 12.5 mg/kg/injection, schedule: Q04DX003 (ip), vehicle: saline with Tween-80 96 % of control | dose: 25.0 mg/kg/injection, schedule: Q01DX009 (ip), vehicle: saline with Tween-80 96 % of control | dose: 25.0 mg/kg/injection, schedule: Q04DX003 (ip), vehicle: saline with Tween-80 98 % of control | dose: 50.0 mg/kg/injection, schedule: Q01DX009 (ip), vehicle: saline with Tween-80 96 % of control | dose: 50.0 mg/kg/injection, schedule: Q04DX003 (ip), vehicle: saline with Tween-80 100 % of control

Cc1cc2nc3c(=O)[nH]c(=O)nc-3n(CCOC(=O)CCC(=O)O)c2cc1C
inactive: dose: 50.0 mg/kg/injection, schedule: Q01DX001 (ip), vehicle: saline 116 % of control | [8] 103 % of control | [9] 114 % of control | [10] 103 % of control

CC(=O)Nc1ccc(Cc2ccc(Cl)cc2)cc1
inactive: [8] 95 % of control | [9] 98 % of control

O=C(O)CCCOc1cc(Cl)c(Cl)cc1Cl
inactive: dose: 50.0 mg/kg/injection, schedule: Q01DX001 (ip), vehicle: carboxymethylcellulose (CMC) 88 % of control | dose: 50.0 mg/kg/injection, schedule: Q01DX009 (ip), vehicle: gum acacia 98 % of control | dose: 50.0 mg/kg/injection, schedule: Q04DX003 (ip), vehicle: gum acacia 96 % of control | [7] 88 % of control | dose: 100.0 mg/kg/injection, schedule: Q01DX009 (ip), vehicle: gum acacia 100 % of control | dose: 100.0 mg/kg/injection, schedule: Q04DX003 (ip), vehicle: gum acacia 96 % of control | dose: 200.0 mg/kg/injection, schedule: Q01DX009 (ip), vehicle: gum acacia 93 % of control | dose: 200.0 mg/kg/injection, schedule: Q04DX003 (ip), vehicle: gum acacia 104 % of control

COc1cc(C=O)ccc1OC(=O)Nc1cccc(Cl)c1Cl
inactive: [3] 90 % of control | [5] 90 % of control | [6] 92 % of control

N#CC(=N)C(C#N)=Nc1c(O)[nH]c2ccccc12
inactive: dose: 25.0 mg/kg/injection, schedule: Q01DX001 (ip), vehicle: DMSO 93 % of control | dose: 25.0 mg/kg/injection, schedule: Q01DX009 (ip), vehicle: DMSO 92 % of control | dose: 50.0 mg/kg/injection, schedule: Q01DX001 (ip), vehicle: DMSO 97 % of control | dose: 50.0 mg/kg/injection, schedule: Q01DX009 (ip), vehicle: DMSO 91 % of control | dose: 100.0 mg/kg/injection, schedule: Q01DX001 (ip), vehicle: DMSO 97 % of control and 102 % of control

C[C@]12CC[C@H]3[C@@H](CC[C@]4(O)C[C@@H](O)CC[C@]34C=O)[C@@]1(O)CC[C@@H]2c1ccc(=O)oc1
inactive: dose: 5.0 mg/kg/injection, schedule: Q01DX001 (ip), vehicle: saline 96 % of control | dose: 10.0 mg/kg/injection, schedule: Q01DX001 (ip), vehicle: saline 95 % of control | dose: 20.0 mg/kg/injection, schedule: Q01DX001 (ip), vehicle: saline 104 % of control | dose: 40.0 mg/kg/injection, schedule: Q01DX001 (ip), vehicle: saline 98 % of control | dose: 80.0 mg/kg/injection, schedule: Q01DX001 (ip), vehicle: saline 95 % of control

Nc1cccc2c1ccc1ccc3ccccc3c12
inactive: [11] 103 % of control | [12] 101 % of control | [13] 108 % of control
